Test results: PubChem BioAssay (NCI)
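Here, GI50 denotes the concentration required for 50% inhibition of growth. TGI: concentration producing complete growth inhibition.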

Experiments:
Assay in all cases: inhibition of tumour cell growth, NCI panel, 384-well format
BT-549 breast = test system: BT-549 breast
CAKI-1 renal = test system: CAKI-1 renal
EKVX NSCLC = test system: EKVX NSCLC
HCT-116 colon = test system: HCT-116 colon
HOP-92 NSCLC = test system: HOP-92 NSCLC
K-562 leukemia = test system: K-562 leukemia
MDA-MB-435 melanoma = test system: MDA-MB-435 melanoma
MOLT-4 leukemia = test system: MOLT-4 leukemia
NCI-H226 lung = test system: NCI-H226 lung
RXF 393 renal = test system: RXF 393 renal
SN12C renal = test system: SN12C renal
SNB-75 CNS = test system: SNB-75 CNS
SW-620 colon = test system: SW-620 colon

Compound	GI50 (BT-549 breast)	TGI (BT-549 breast)	GI50 (CAKI-1 renal)	TGI (CAKI-1 renal)	GI50 (EKVX NSCLC)	TGI (EKVX NSCLC)	GI50 (HCT-116 colon)	TGI (HCT-116 colon)	GI50 (HOP-92 NSCLC)	TGI (HOP-92 NSCLC)	GI50 (K-562 leukemia)	TGI (K-562 leukemia)	GI50 (MDA-MB-435 melanoma)	TGI (MDA-MB-435 melanoma)	GI50 (MOLT-4 leukemia)	TGI (MOLT-4 leukemia)	GI50 (NCI-H226 lung)	TGI (NCI-H226 lung)	GI50 (RXF 393 renal)	TGI (RXF 393 renal)	other results
Cc1ccc(-c2nc(N)nc3c2nnn3Cc2cccc(CO[C@H]3CCOC3)n2)o1	> 100 µM	> 100 µM	> 100 µM	> 100 µM	> 100 µM	> 100 µM	> 100 µM	> 100 µM	> 100 µM	> 100 µM	57.5 µM	> 100 µM	> 100 µM	> 100 µM	42.2 µM	> 100 µM	> 100 µM	> 100 µM	97.4 µM	> 100 µM	GI50 (SN12C renal): > 100 µM; TGI (SN12C renal): > 100 µM; GI50 (SNB-75 CNS): > 100 µM; TGI (SNB-75 CNS): > 100 µM; GI50 (SW-620 colon): > 100 µM; TGI (SW-620 colon): > 100 µM
Cc1cc(-c2nnc(N)nc2-c2ccc(F)cc2)cc(Cl)n1	88.8 µM	> 100 µM	> 91.5 µM	> 100 µM	52.9 µM	> 100 µM	75.6 µM	> 100 µM	> 50.9 µM	> 100 µM	37.8 µM	> 100 µM	> 100 µM	> 100 µM	30.5 µM	> 90.8 µM	> 100 µM	> 100 µM	28.5 µM	> 100 µM	GI50 (SN12C renal): > 100 µM; TGI (SN12C renal): > 100 µM; GI50 (SNB-75 CNS): > 100 µM; TGI (SNB-75 CNS): > 100 µM; GI50 (SW-620 colon): > 81.1 µM; TGI (SW-620 colon): > 100 µM
